According to patent US20080095754A1, “OPHTHALMIC COMPOSITIONS COMPRISING DIGLYCINE” (priority 2006, published 2008):
Residues, ends and D or L forms follow the SMILES beside them.

Columns and labels:
lysozyme [1] = assay: VP-DSC thermal unfolding of lysozyme in formulated solutions; assay type: physicochemical; settings: for reversibility of thermal denaturation / refolding of lysozyme, VP-DSC: second scan; for increase in the melting temperature of lysozyme: in both VP-DSC and CD
Procedure: (§1) To evaluate the effect of diglycine on the conformational stability of lysozyme, Formulations 1 and 2 as well as a formulation without diglycine were analyzed by differential scanning calorimetry (DSC) and circular dichroism (CD). Before DSC and CD analysis, a lysozyme solution was prepared in borate buffer, pH 7.3 (sodium borate, 0.09%; boric acid, 0.85%; sodium chloride, 0.22%) at a concentration of 5 mg/mL, and was dialyzed against the formulated solutions containing 0, 1 (Formulation 1), and 3% (Formulation 2) diglycine, at 2-8° C. for 16 hours. Thermal scans were preformed twice to investigate the reversibility of thermal unfolding for both DSC and CD. This study examines the values of melting temperature (Tm), unfolding enthalpies (ΔH), and the ability of the lysozyme to refold upon unfolding for each of the three formulations because these parameters, in general, predict the thermostability of a protein and approximates the susceptibility of a protein to aggegrate and other irreversible changes at lower temperatures.
For the DSC analysis, thermograms were obtained on a VP-DSC (Microcal, USA) at a scan rate of 90° C. per hour from 10° C. to 95° C. All samples were diluted with the formulated solutions to a concentration of 0.5 mg/mL, and degassed for 4 minutes using a vacuum. The thermograms were corrected for the baseline signal and normalized for protein concentration. Using a non-2-state unfolding model, the Tm and the ΔH were determined by Origin software. […]

lysozyme [2] = assay: Far-UV circular dichroism (CD) thermal melting of lysozyme in formulated solutions; assay type: physicochemical; settings: for change of lysozyme Tm, CD: glycerin 1%, trehalose 1% and 5%, alone; for reversibility of thermal denaturation / refolding of lysozyme, CD: second scan
Procedure: as §1
CD spectra were conducted on a Jasco-810 Spectropolarimeter. The far-UV CD studies were preformed in a 1-mm pathlength cell at a protein concentration of 0.2 mg/mL, using a scan rate of 50 nm/min from 190 nm to 260 nm and a scan rate of 1° C./min from 20° C. to 95° C. The melting temperatures and the unfolding enthalpies were determined from the denaturation curved obtained from the dependency of the mean residue ellipticity at 230 nm on temperature.
A second experiment screened the additives glycerin, trehalose, and hyaluronic acid (HA) in combination with 1% diglycine, for their ability to stabilize the conformation of lysozyme. VP-DSC and CD were again used to measure the melting temperatures (Tm), unfolding enthalpies (ΔH), and the ability to refold the lysozyme upon unfolding.
Before DSC and CD analysis, the lysozyme solution was prepared in a borate buffer, pH 7.3 (sodium borate, 0.09%; boric acid, 0.85%; sodium chloride, 0.22%) at a concentration of 5 mg/mL. It was then dialyzed against the formulated solutions containing either 1% glycerin, 1% trehalose, 5% trehalose, 1% diglycine and 3% glycerin, or 1% diglycine and 3% trehalose, at 2-8° C. for 16 hours. For the hyaluronic acid formulation, the lysozyme solution was dialyzed against the borate buffer, and subsequently diluted to the desired concentrations with 0.2% of hyaluronic acid for analyses. Thermal scans were performed twice to investigate the reversibility of thermal unfolding for both methods.
The VP-DSC results are supported by the circular dichroism (CD) spectral measurements which were conducted as a function of temperature on a Jasco-810 Spectropolarimeter. The far-UV CD studies were performed in a 1-mm pathlength cell at a protein concentration of 0.2 mg/mL, and a scan rate of 1° C./min form 20° C. to 95° C. The melting temperatures and the Van't Hoff enthalpies were determined from denaturation curves obtained from the mean residue ellipticity at 230 nm as a function of temperature. Tables 2 and 3 summarize the results of the CD measurements and FIGS. 13-18 show the CD-thermal scans.

Compound | change of lysozyme Tm, VP-DSC (lysozyme [1]) | reversibility of thermal denaturation / refolding of lysozyme, VP-DSC (lysozyme [1]) | change of lysozyme Tm, CD (lysozyme [2]) | reversibility of thermal denaturation / refolding of lysozyme, CD (lysozyme [2]) | increase in the melting temperature of lysozyme (lysozyme [1]; 1% w/w diglycine vs borate buffer) | increase in the melting temperature of lysozyme (lysozyme [1]; 3% w/w diglycine vs borate buffer)
OCC(O)CO [glycerin] | did not increase | not able to refold | did not increase | partial refolding phenomenon |  | 
NCC(=O)NCC(=O)O [diglycine] (H-Gly-Gly-OH) |  | at least partially reversible |  | at least partially reversible | approximately 2 °C | ~4 °C
OC[C@H]1O[C@H](O[C@H]2O[C@H](CO)[C@@H](O)[C@H](O)[C@H]2O)[C@H](O)[C@@H](O)[C@@H]1O [trehalose] | did not increase | not able to refold | did not increase | not able to refold |  | 
